The values that follow come from PMC11952846, “The sterol-regulating human ARV1 binds cholesterol and phospholipids through its conserved ARV1 homology domain” (The Journal of Biological Chemistry, 2025).

Experiment [1] concerns the target GST-Annexin A2 (Homo sapiens, UniProt P07355). Kind of experiment: Protein-lipid liposome binding assay (positive control protein). The settings on record: protein detected in final pellet. How it is done: Lyophilized lipids were reconstituted in chloroform at 10 mg/ml and stored in glass tubes with Teflon tops at −20 °C until use. One milliliter of 10 mg/ml stock was dried under a stream of nitrogen in a glass tube until a lipid cake/film was formed. The lipid cake was then rehydrated in BLT rehydration buffer (5 mM Tris/HCl, pH 7.4, containing 150 mM NaCl) to a concentration of 1 mg/ml. Lipid suspensions were subjected to three freeze/thaw cycles using a dry ice ethanol/[…] water bath to encapsulate the buffer and improve liposome formation. The suspension and lipid extruder were equilibrated to temperature for 10 min and liposomes were extruded using […] polycarbonate membranes (Avestin). Liposomes were made by mixing stock lipid PL (1 mg/ml) with PC (10 mg/ml).
Liposomes were serial diluted in floatation buffer (100 mM NaCl, 2 mM EDTA, pH 5.5) to a final concentration of 0.1 mg/ml. Nine hundred microliters of liposome solution was placed in clear ultracentrifuge tubes and mixed with 100 μl of 0.01 μg/ml of protein. The liposome/protein solution was incubated at room temperature for 1 h with occasional shaking. An initial 100 μl of liposome/protein solution (liposomes) was removed and the remaining 900 μl was centrifuged at 50,000g for 20 min at 4 °C. The pellet was resuspended in 800 μl of fresh floatation buffer, centrifuged as above, and 800 μl of supernatant was removed (wash 1). This was repeated a second time and again 800 μl of supernatant was removed (wash 2). The final pellet was resuspended in 100 μl of floatation buffer plus SDS treatment buffer (pellet). Thirty microliters of each fraction was run on a 15% SDS-PAGE gel and probed with an anti-GST monoclonal antibody at a 1:1500 dilution.

For experiment [2], the target named is T1, GST-ARV1 (full-length ARV1) (Homo sapiens, UniProt Q9H2C2).
T1 construct: Expresses full length ARV1; made in house; host or cells: E. coli BL21 (pGEX-4T1)
T1 sequence (Q9H2C2 1-271): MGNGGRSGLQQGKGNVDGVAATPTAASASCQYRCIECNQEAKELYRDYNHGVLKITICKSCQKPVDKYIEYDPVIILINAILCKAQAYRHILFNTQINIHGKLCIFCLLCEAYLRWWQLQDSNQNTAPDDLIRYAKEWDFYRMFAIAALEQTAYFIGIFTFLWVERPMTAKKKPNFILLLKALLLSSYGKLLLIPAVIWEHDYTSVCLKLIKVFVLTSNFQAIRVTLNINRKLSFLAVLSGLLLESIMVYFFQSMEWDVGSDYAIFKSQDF
Kind of experiment: Lipid overlay far western. The class given is binding. How it is done:
(§1) Lipid overlays were blocked in TBST-BSA (100 mM Tris–HCl buffer, pH 7.5, 150 mM NaCl, 0.5% Tween 20, 3% bovine serum albumin) for 1 h and subsequently washed eight separate times with TBST for 2 min each. Overlays were incubated with 0.5 μg/ml GST-tagged or 6XHIS-tagged proteins in 3% TBST-BSA buffer containing 0.1% Triton X-100, for 1 h at room temperature and washed as above. Overlays were incubated with either anti-GST or anti-6XHIS monoclonal antibodies at a 1:1000 dilution in TBST-BSA for 1 h at room temperature followed by eight washes in TBST. Overlays were visualized using Immobilon Western Chemiluminescent horseradish peroxidase substrate and protein–lipid interaction was detected using a GE ImageQuant LAS 3000 imager.

Experiment [3] has as its target T2, GST-ARV1-N98 (Homo sapiens, UniProt Q9H2C2).
T2 construct: Expresses amino-terminal 98 amino acids of ARV1; made in house; host or cells: E. coli BL21 (pGEX-4T1)
T2 sequence (Q9H2C2 1-98): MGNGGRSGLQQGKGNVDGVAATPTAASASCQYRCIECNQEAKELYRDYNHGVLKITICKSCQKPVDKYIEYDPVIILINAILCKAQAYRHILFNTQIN
Kind of experiment: Lipid overlay far western. The class given is binding. The protocol: as §1

Experiment [4] concerns the target T3, 6XHIS-N98 N94A (Homo sapiens, UniProt Q9H2C2, N94A).
T3 construct: made in house; host or cells: E. coli BL21
T3 sequence (Q9H2C2 1-98 N94A): T2 sequence (Q9H2C2 1-98) with N94A
Kind of experiment: HTRF phospholipid lipid-binding assay, mutant. Details: key: NC, no change. The settings on record: biotinylated lipid; NC = no change vs N98. From the text:
(§2) An HTRF assay was developed for 6XHIS-ARV1-N98-lipid binding. HTRF measures analyte interactions through fluorescence resonance energy transfer technology and time-resolved measurements ([53]). The interaction between two molecules can be quantified through binding each individual molecule involved with a fluorescent label and then analyzing the transfer of energy between the initial donor fluorophore and the secondary acceptor fluorophore. Following excitation of the first fluorophore, transfer of energy can only occur if the molecules bound with the fluorescent tags are within proximity to each other.
(§3) Assays were plated in 384-well flat bottom microplates (Greiner Bio, catalog #784075-25). Proteins were diluted using binding buffer (20 mM Hepes buffer, pH 7.2, containing 0.1% BSA, and 0.01% Tween20) to a stock concentration of 0.75 μM, and biotinylated phospholipids were dispensed, dried under nitrogen gas, and resuspended in binding buffer to a stock concentration of 50 μM. The lipid stock solution was diluted by 1:2 for a series of 12 serial dilutions. For the assay, in sequential order, 6 μl of binding buffer was loaded into the plate in triplicate for each dilution of phospholipid. To this, 2 μl of 0.75 μM 6XHIS-ARV1-N98 was added, followed by 2 μl of biotinylated phospholipid. Immediately following each addition loaded into the plate, the plate was centrifuged for 1 min at 1000 rpm to bring the contents to the bottom of the well. Next, detection antibodies were mixed with detection buffer (20 mM Hepes buffer, pH 8.5, containing 0.01% BSA and 200 mM KF). Antibodies were a MAb anti-6XHIS Europium kryptate-conjugated D1 fluorescent antibody (Cisbio, #61HISKLA) and Streptavidin-conjugated d2 fluorescent antibody (Cisbio, #610SADLA). For each 1000 μl of detection buffer, 5 μl of each antibody was added just prior to loading 10 μl into each well. The plate was again centrifuged for 1 min at 1000 rpm and stored in a sealed container overnight, in the dark. Plates were read on a PerkinElmer EnVision Xcite Multilabel plate reader.
(§4) Curves were logarithmically transformed and normalized to a common scale before being fit with a nonlinear regression of the agonist against the normalized response. This generated half maximal effective concentration values (EC50; M) that could then be compared between different lipids. In the context of our study, EC50 values were defined as a measure of protein sensitivity to binding to a particular lipid within a dose response curve. For phospholipid competition analysis, IC50; M values were determined using nonlinear regression of the inhibitor against normalized response.
Background: Time-resolved FRET reads energy transfer from a long-lived donor to a nearby acceptor.

The target in experiment [5] is T4, 6XHIS-N98 N94Q (Homo sapiens, UniProt Q9H2C2, N94Q).
T4 construct: made in house; host or cells: E. coli BL21
T4 sequence (Q9H2C2 1-98 N94Q): T2 sequence (Q9H2C2 1-98) with N94Q
Kind of experiment: HTRF phospholipid lipid-binding assay, mutant. Further details: key: NC, no change. The settings on record: biotinylated lipid; NC = no change vs N98.
Excerpt: as §2, §3, §4

[6] abbreviates: lipid-embedded membrane strips, incl. sphingolipid strip.
Where [7] appears, read: PIP lipid membrane strip, 100pmol-1.56pmol per spot.

Where a chain is given by its changes, count along the chain named. Entries after “also recorded” stand apart in the source; their conditions may differ.

Sequence of GST-Annexin A2 (P07355 whole entry): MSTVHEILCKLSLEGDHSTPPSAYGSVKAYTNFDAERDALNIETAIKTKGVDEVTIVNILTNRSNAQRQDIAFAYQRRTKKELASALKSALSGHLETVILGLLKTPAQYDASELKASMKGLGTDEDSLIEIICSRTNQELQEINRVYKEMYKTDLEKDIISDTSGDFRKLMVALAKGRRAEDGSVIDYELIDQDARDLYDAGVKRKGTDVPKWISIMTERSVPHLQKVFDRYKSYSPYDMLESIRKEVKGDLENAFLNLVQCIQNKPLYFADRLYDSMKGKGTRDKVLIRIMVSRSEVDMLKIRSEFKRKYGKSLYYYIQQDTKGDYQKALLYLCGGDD

As for `CCCCC/C=C\C/C=C\CCCCCCCC(=O)OC[C@H](COP(=O)(O)OCC(O)COP(=O)(O)OC[C@@H](COC(=O)CCCCCCC/C=C\C/C=C\CCCCC)OC(=O)CCCCCCC/C=C\C/C=C\CCCCC)OC(=O)CCCCCCC/C=C\C/C=C\CCCCC` (some centres unmarked) [CL, cardiolipin], in experiment [1], the “binding to PC:PL liposomes” value was “bound”. Besides, the lipid-protein interaction entry in experiment [2] (setting [6]) and in experiment [3] (setting [6]) was “interacted” throughout. The “Bio-PL, EC50, M ± S.D.” value in experiment [4] and in experiment [5] was “NC” in each case.
Regarding `CCCCCCCC/C=C\CCCCCCCC(=O)OC[C@H](COP(=O)(O)OCC(O)CO)OC(=O)CCCCCCC/C=C\CCCCCCCC` (some centres unmarked) [PG, phosphatidylglycerol], the “binding to PC:PL liposomes” value in experiment [1] is “bound”. Also, the lipid-protein interaction result was “weakly” in experiment [2] (setting [6]) and “interacted” in experiment [3] (setting [6]). The “Bio-PL, EC50, M ± S.D.” value is listed as “reduced” in experiment [4] and “NC” in experiment [5].
In the same order, the values of phosphatidylethanolamine [PE] are “Neither”, “not seen”, “not seen”, “NC” and “NC”.
Take phosphatidylcholine [PC]: the “binding to PC:PL liposomes” value in experiment [1] is “very weakly”. For the same compound, the “Bio-PL, EC50, M ± S.D.” value in experiment [4] and in experiment [5] was “NC” throughout.
Take `CCCCCCCCCCCCCCCC(=O)OC[C@H](COP(=O)(O)O)OC(=O)CCCCCCCCCCCCCCC` [PA, phosphatidic acid]: the “binding to PC:PL liposomes” value in experiment [1] was “bound”. Further, the “Bio-PL, EC50, M ± S.D.” value in experiment [4] and in experiment [5] was “reduced binding” in each case.
Consider `CCCCCCCCCCCCCCCCCC(=O)OC[C@H](COP(=O)(O)OC[C@H](N)C(=O)O)OC(=O)CCCCCCCCCCCCCCCCC` [PS, phosphatidylserine], for which the “binding to PC:PL liposomes” value in experiment [1] is reported as “bound”. Further, the lipid-protein interaction result in experiment [2] (setting [6]) and in experiment [3] (setting [6]) was “interacted” throughout. The “Bio-PL, EC50, M ± S.D.” value in experiment [4] and in experiment [5] was “NC” in each case.
On to `CCCCCC(=O)O[C@H](COC(=O)CCCCCNC(=O)CCCC[C@@H]1SC[C@@H]2NC(=O)N[C@@H]21)COP(=O)(O)O[C@H]1[C@H](O)[C@@H](O)[C@H](OP(=O)(O)O)[C@@H](O)[C@H]1O` [reference compound], for which the lipid-protein interaction entry in experiment [2] (setting [7]) is on record as “weakly”; in experiment [2] (setting [6]), “weakly”; in experiment [3] (setting [7]) it was “interacted”; in experiment [3] (setting [6]), “interacted”. Also, the “Bio-PL, EC50, M ± S.D.” value in experiment [4] is reported as “weakened; also recorded: reduction”; in experiment [5], “weakened”.
